In US8586555B2, “Immunomodulatory compositions, formulations, and methods for use thereof” (Dynavax Technologies Corporation, priority 2001, dated 2013):

Columns and labels:
Type in all cases: cell-based
[1] = tested on: human peripheral blood mononuclear cells (hPBMC); experiment: human PBMC assay, Example 5 (96 well plates, premixed); conditions: for IFN-α Mean / IFN-γ Mean: mean of donors 28051-28054
Protocol: (§1) Hexameric oligonucleotides were tested for immunomodulatory activity alone and complexed with lactic acid/glycolic acid copolymer microcarrier beads using a human peripheral blood mononuclear cells (hPBMC) assay. Peripheral blood was collected from healthy volunteers by venipuncture using heparinized syringes. Blood was layered onto a FICOLL® (Amersham Pharmacia Biotech) cushion and centrifuged. hPBMCs, located at the FICOLL® interface, were collected, then washed twice with cold phosphate buffered saline (PBS). The cells were resuspended and cultured in 48 well plates at 2×10^6 cells/mL at 37° C. in RPMI 1640 with 10% heat-inactivated human AB serum plus 50 units/mL penicillin, 50 μg/mL streptomycin, 300 μg/mL glutamine, 1 mM sodium pyruvate, and 1×MEM non-essential amino acids (NEAA).
(§2) Oligonucleotides were tested as single agents, or in combination with PLGA microspheres (unmodified or cationic). All oligonucleotides contained 100% phosphorothioate linkages and were tested at 20 μg/ml. The PLGA microcarriers were used at 250 μg/ml. When oligos were tested with PLGA microcarriers, the oligo and the microcarriers were added at the same time to the culture. The cells were cultured in the in the presence of test samples for 24 hours, then cell-free medium was collected from each well and assayed for IFN-γ and IFN-α concentration. Two different oligonucleotides were used as controls: a first oligonucleotide known to have immunostimulatory activity (a 22mer oligonucleotide containing an ISS (“ISS+,” 5′-[…]-3′(SEQ ID NO:2)) and a second oligonucleotide of similar sequence but lacking immunostimulatory activity (“ISS−,” 5′-[…]-3′ (SEQ ID NO:1)). SAC (PANSORBIN® CalBiochem, 1/5000 dilution) and a untreated culture were used as additional positive and negative controls, respectively. SAC contains Staph. aureus (Cowan I) cell material. All samples were assayed in duplicate.
(§3) IFN-γ and IFN-α were assayed using CYTOSCREEN™ ELISA kits from BioSource International, Inc., according to the manufacturer's instructions.
(§4) The immunomodulatory activity of the oligonucleotides used in Examples 3 and 4 was confirmed with the human PBMC assay using PBMCs from an additional four donors (donors 28051-28054). Oligonucleotides were tested alone or in combination with cationic PLGA as described in Example 3, except that 96 well plates were used instead of 48 well plates and the oligonucleotides were premixed with the cationic microspheres at room temperature for 15 minutes before they were added to the culture, rather than being added simultaneously to the culture.

[2] = tested on: human peripheral blood mononuclear cells (hPBMC); experiment: human PBMC assay, Example 3 (oligo and PLGA added at the same time, 48 well plates); conditions: for IFN-α / IFN-γ: oligo 20 μg/ml, PLGA 250 μg/ml, 24 hours; for immunomodulatory activity: in combination with cationic PLGA; for IFN-α Mean / IFN-γ Mean: mean of donors 28033, 28034
Protocol: as §1, §2, §3

[3] = tested on: human peripheral blood mononuclear cells (hPBMC); experiment: human PBMC assay, Example 6
Protocol: as §1, §2, §3, §4
Additional oligonucleotides were tested for immunomodulatory activity in the human PBMC assay. Oligonucleotides were tested alone or in combination with cPLGA as described in Example 5.
Additional oligonucleotides were tested using hPBMCs from volunteers 154-157 using the same assay. Results, which are shown in Table 7, confirm the activity of oligonucleotides fitting the formula 5′-X1TCGX2-3′, where the oligonucleotide is a 3-6mer, X1 is zero or one nucleotide and X2 is zero to three nucleotides.

[4] = tested on: human peripheral blood mononuclear cells (hPBMC); experiment: human PBMC assay, Example 4 (oligos and PLGA premixed 15 minutes); conditions: for IFN-α Mean / IFN-γ Mean: mean of donors 28044, 28045
Protocol: as §1, §2, §3
Additional hexameric and pentameric oligonucleotides were tested for immunomodulatory activity in the PBMC assay. Oligonucleotides 6-6 (5′-TCGAGA-3′), 6-8 (5′-GTCGAC-3′), 6-9 (5′-GTCGTT-3′), 6-2 (5′-TCGTTT-3′), 6-3 (5′-TTCGTT-3′), 6-4 (5′-TTTCGT-3′), 5-1 (5′-TCGTC-3′), and 5-2 (5′-TCGTT-3′) were tested alone or in combination with cationic PLGA as described in Example 3 except that the oligos and PLGA were premixed for 15 minutes room temperature before addition to the cultures. The test articles were assayed using PBMC isolated from donors 28044 and 28045.

[5] = tested on: human peripheral blood mononuclear cells (hPBMC); experiment: human PBMC assay, Example 7 (oligo 20 μg/ml, cPLGA 100 μg/ml); conditions: for IFN-α Mean / IFN-γ Mean: mean of donors 28115-28118
Protocol: as §1, §2, §3, §4
Additional oligonucleotides, some incorporating modified bases, were tested for immunomodulatory activity in the human PBMC assay. Oligonucleotides were tested alone or in combination with cPLGA as described in Example 5. The oligonucleotides were premixed with the cationic PLGA microspheres for 15 minutes at room temperature at concentrations of 20 μg/ml and 100 μg/ml, respectively.

[6] = delivered as IMO/MC complexes (cPLGA)

5′-ATCGAT-3′ [Oligonucleotide 6-7]
immunomodulatory activity ([1]; delivered alone): inactive
immunomodulatory activity [1, 6]: highly active
IFN-α ([1]; donor 28051): 1 pg/mL
IFN-γ ([1]; donor 28051): 1 pg/mL
IFN-α ([1]; donor 28052): 0 pg/mL
IFN-γ ([1]; donor 28052): 1 pg/mL
IFN-α ([1]; donor 28053): 4 pg/mL
IFN-γ ([1]; donor 28053): 2 pg/mL
IFN-α ([1]; donor 28054): 1 pg/mL
IFN-γ ([1]; donor 28054): 2 pg/mL
IFN-α Mean [1]: 2 pg/mL
IFN-γ Mean [1]: 1 pg/mL
IFN-α ([2]; donor 28033): 8 pg/mL
IFN-γ ([2]; donor 28033): 0 pg/mL
IFN-α ([2]; donor 28034): 22 pg/mL
IFN-γ ([2]; donor 28034): 3 pg/mL
immunomodulatory activity [2]: active
IFN-α Mean [2]: 15 pg/mL
IFN-γ Mean [2]: 2 pg/mL

5′-TCGTCG-3′ [Oligonucleotide 6-1]
IFN-α Mean ([3]; mean of volunteers 154-157): 0 pg/mL
IFN-γ Mean ([3]; mean of volunteers 154-157): 3 pg/mL
IFN-α ([3]; volunteer 154): 0 pg/mL
IFN-γ ([3]; volunteer 154): 0 pg/mL
IFN-α ([3]; volunteer 155): 0 pg/mL
IFN-γ ([3]; volunteer 155): 0 pg/mL
IFN-α ([3]; volunteer 156): 0 pg/mL
IFN-γ ([3]; volunteer 156): 11 pg/mL
IFN-α ([3]; volunteer 157): 0 pg/mL
IFN-γ ([3]; volunteer 157): 0 pg/mL
immunomodulatory activity ([1]; delivered alone): inactive
immunomodulatory activity [1, 6]: highly active
IFN-α ([1]; donor 28051): 0 pg/mL
IFN-γ ([1]; donor 28051): 2 pg/mL
IFN-α ([1]; donor 28052): 2 pg/mL
IFN-γ ([1]; donor 28052): 3 pg/mL
IFN-α ([1]; donor 28053): 1 pg/mL
IFN-γ ([1]; donor 28053): 1 pg/mL
IFN-α ([1]; donor 28054): 4 pg/mL
IFN-γ ([1]; donor 28054): 2 pg/mL
IFN-α Mean [1]: 2 pg/mL
IFN-γ Mean [1]: 2 pg/mL
IFN-α ([2]; donor 28033): 0 pg/mL
IFN-γ ([2]; donor 28033): 0 pg/mL
IFN-α ([2]; donor 28034): 40 pg/mL
IFN-γ ([2]; donor 28034): 4 pg/mL
immunomodulatory activity [2]: active
IFN-α Mean [2]: 20 pg/mL
IFN-γ Mean [2]: 2 pg/mL

5′-TGACTGTGAACCTTAGAGATGA-3′ (DNA, all phosphorothioate, methylation of C not given here) [ISS−, reference compound]
IFN-α ([3]; donor 28075): 41 pg/mL
IFN-γ ([3]; donor 28075): 15 pg/mL
IFN-α ([3]; donor 28076): 23 pg/mL
IFN-γ ([3]; donor 28076): 15 pg/mL
IFN-α ([3]; donor 28077): 54 pg/mL
IFN-γ ([3]; donor 28077): 12 pg/mL
IFN-α ([3]; donor 28078): 27 pg/mL
IFN-γ ([3]; donor 28078): 16 pg/mL
IFN-α Mean ([3]; mean of donors 28075-28078): 36 pg/mL
IFN-γ Mean ([3]; mean of donors 28075-28078): 15 pg/mL
IFN-α Mean ([3]; mean of volunteers 154-157): 0 pg/mL
IFN-γ Mean ([3]; mean of volunteers 154-157): 43 pg/mL
IFN-α ([3]; volunteer 154): 0 pg/mL
IFN-γ ([3]; volunteer 154): 0 pg/mL
IFN-α ([3]; volunteer 155): 0 pg/mL
IFN-γ ([3]; volunteer 155): 17 pg/mL
IFN-α ([3]; volunteer 156): 0 pg/mL
IFN-γ ([3]; volunteer 156): 58 pg/mL
IFN-α ([3]; volunteer 157): 0 pg/mL
IFN-γ ([3]; volunteer 157): 98 pg/mL
IFN-α ([4]; donor 28044): 0 pg/mL
IFN-γ ([4]; donor 28044): 410 pg/mL
IFN-α ([4]; donor 28045): 0 pg/mL
IFN-γ ([4]; donor 28045): 51 pg/mL
IFN-α Mean [4]: 0 pg/mL
IFN-γ Mean [4]: 231 pg/mL
IFN-α ([5]; donor 28115): 0 pg/mL
IFN-γ ([5]; donor 28115): 20 pg/mL
IFN-α ([5]; donor 28116): 0 pg/mL
IFN-γ ([5]; donor 28116): 22 pg/mL
IFN-α ([5]; donor 28117): 0 pg/mL
IFN-γ ([5]; donor 28117): 334 pg/mL
IFN-α ([5]; donor 28118): 0 pg/mL
IFN-γ ([5]; donor 28118): 14 pg/mL
IFN-α Mean [5]: 0 pg/mL
IFN-γ Mean [5]: 98 pg/mL
IFN-α ([1]; donor 28051): 0 pg/mL
IFN-γ ([1]; donor 28051): 5 pg/mL
IFN-α ([1]; donor 28052): 3 pg/mL
IFN-γ ([1]; donor 28052): 2 pg/mL
IFN-α ([1]; donor 28053): 1 pg/mL
IFN-γ ([1]; donor 28053): 3 pg/mL
IFN-α ([1]; donor 28054): 5 pg/mL
IFN-γ ([1]; donor 28054): 2 pg/mL
IFN-α Mean [1]: 2 pg/mL
IFN-γ Mean [1]: 3 pg/mL
IFN-α ([2]; donor 28033): 0 pg/mL
IFN-γ ([2]; donor 28033): 3 pg/mL
IFN-α ([2]; donor 28034): 31 pg/mL
IFN-γ ([2]; donor 28034): 8 pg/mL
IFN-α Mean [2]: 15 pg/mL
IFN-γ Mean [2]: 5 pg/mL

5′-TGACTGTGAACGTTCGAGATGA-3′ [ISS+, reference compound]
IFN-α ([3]; donor 28075): 0 pg/mL
IFN-γ ([3]; donor 28075): 48 pg/mL
IFN-α ([3]; donor 28076): 73 pg/mL
IFN-γ ([3]; donor 28076): 76 pg/mL
IFN-α ([3]; donor 28077): 54 pg/mL
IFN-γ ([3]; donor 28077): 15 pg/mL
IFN-α ([3]; donor 28078): 94 pg/mL
IFN-γ ([3]; donor 28078): 72 pg/mL
IFN-α Mean ([3]; mean of donors 28075-28078): 55 pg/mL
IFN-γ Mean ([3]; mean of donors 28075-28078): 53 pg/mL
IFN-α Mean ([3]; mean of volunteers 154-157): 12 pg/mL
IFN-γ Mean ([3]; mean of volunteers 154-157): 317 pg/mL
IFN-α ([3]; volunteer 154): 31 pg/mL
IFN-γ ([3]; volunteer 154): 211 pg/mL
IFN-α ([3]; volunteer 155): 0 pg/mL
IFN-γ ([3]; volunteer 155): 131 pg/mL
IFN-α ([3]; volunteer 156): 15 pg/mL
IFN-γ ([3]; volunteer 156): 86 pg/mL
IFN-α ([3]; volunteer 157): 0 pg/mL
IFN-γ ([3]; volunteer 157): 840 pg/mL
IFN-α ([4]; donor 28044): 401 pg/mL
IFN-γ ([4]; donor 28044): 2180 pg/mL
IFN-α ([4]; donor 28045): 39 pg/mL
IFN-γ ([4]; donor 28045): 669 pg/mL
IFN-α Mean [4]: 220 pg/mL
IFN-γ Mean [4]: 1425 pg/mL
IFN-α ([5]; donor 28115): 54 pg/mL
IFN-γ ([5]; donor 28115): 156 pg/mL
IFN-α ([5]; donor 28116): 29 pg/mL
IFN-γ ([5]; donor 28116): 125 pg/mL
IFN-α ([5]; donor 28117): 17 pg/mL
IFN-γ ([5]; donor 28117): 497 pg/mL
IFN-α ([5]; donor 28118): 0 pg/mL
IFN-γ ([5]; donor 28118): 46 pg/mL
IFN-α Mean [5]: 25 pg/mL
IFN-γ Mean [5]: 206 pg/mL
IFN-α ([1]; donor 28051): 12 pg/mL
IFN-γ ([1]; donor 28051): 66 pg/mL
IFN-α ([1]; donor 28052): 28 pg/mL
IFN-γ ([1]; donor 28052): 20 pg/mL
IFN-α ([1]; donor 28053): 12 pg/mL
IFN-γ ([1]; donor 28053): 72 pg/mL
IFN-α ([1]; donor 28054): 12 pg/mL
IFN-γ ([1]; donor 28054): 23 pg/mL
IFN-α Mean [1]: 16 pg/mL
IFN-γ Mean [1]: 45 pg/mL
IFN-α ([2]; donor 28033): 28 pg/mL
IFN-γ ([2]; donor 28033): 99 pg/mL
IFN-α ([2]; donor 28034): 106 pg/mL
IFN-γ ([2]; donor 28034): 223 pg/mL
IFN-α Mean [2]: 67 pg/mL
IFN-γ Mean [2]: 161 pg/mL
